For 9 compounds, EC50 results are on record in US20230079045A1 (priority 2019, published 2023).

One experiment concerns IFVA/Weiss/43. Description: cytopathic effect (CPE) antiviral test in MDCK cells, IFVA/Weiss/43. In kind it is cell-based, influenza virus. As to conditions: unidentified influenza virus, MDCK, 120 h, read-out: EC50(IFVA/Weiss/43), MDCK cells, CPE method, CCK-8 cell viability, 5 days.
A further experiment deals with IFVA/Mal/302/54. Description: cytopathic effect (CPE) antiviral test in MDCK cells, IFVA/Mal/302/54. In kind it is cell-based, influenza virus. The conditions noted are these: unidentified influenza virus, MDCK, 120 h, read-out: EC50(IFVA/Mal/302/54), MDCK cells, CPE method, CCK-8 cell viability, 5 days. On the technique in general: Cytopathic effects are the visible damage that an infection or toxin causes in cultured cells.

Turning to `CC(=O)Nc1ccc2oc(-c3ccnc(C(=O)N4C[C@H]5C[C@@H]4CN5C(c4ccccc4)c4nnn(C)n4)c3)nc2c1` (stereo partly drawn) [Compound 6a, N-(2-(2-((1R,4R)-5-((2-methyl-2H-tetrazol-5-yl)(phenyl)methyl)-2,5-diazabicyclo[2.2.1]heptane-2-carbonyl)pyridin-4-yl)benzo[d]oxazol-5-yl)acetamide], the EC50 is greater than 7870 nM in the experiment on IFVA/Weiss/43 and greater than 10000 nM with IFVA/Mal/302/54.

`CC(=O)Nc1ccc2oc(-c3ccnc(C(=O)N4CCN(C(c5ccccc5)c5nnn(C(F)F)n5)CC4)c3)nc2c1` (stereo not drawn) [Compound 40, N-(2-(2-(4-((2-(difluoromethyl)-2H-tetrazol-5-yl)(phenyl)methyl)piperazine-1-carbonyl)pyridin-4-yl)benzo[d]oxazol-5-yl)acetamide]: the EC50 was found to be 16 nM in the experiment with IFVA/Weiss/43 and 24 nM with IFVA/Mal/302/54.

Take `CC(=O)Nc1ccc2oc(-c3ccnc(C(=O)N4C5CCC4CN(C(c4ccccc4)c4nnnn4C(F)F)C5)c3)nc2c1` (stereo not drawn) [Compound 18, N-(2-(2-(3-((1-(difluoromethyl)-1H-tetrazol-5-yl)(phenyl)methyl)-3,8-diazabicyclo[3.2.1]octane-8-carbonyl)pyridin-4-yl)benzo[d]oxazol-5-yl)acetamide]: the EC50 with IFVA/Weiss/43 was found to be 422 nM; in the experiment with IFVA/Mal/302/54, 177 nM.

Take `CC(=O)Nc1ccc2oc(-c3ccnc(C(=O)N4C5CCC4CN(C(c4ccccc4)c4nnn(C(F)F)n4)C5)c3)nc2c1` (stereo not drawn) [Compound 17, N-(2-(2-(3-((2-(difluoromethyl)-2H-tetrazol-5-yl)(phenyl)methyl)-3,8-diazabicyclo[3.2.1]octane-8-carbonyl)pyridin-4-yl)benzo[d]oxazol-5-yl)acetamide]: the EC50 in the experiment on IFVA/Weiss/43 was found to be 9 nM; with IFVA/Mal/302/54, 22 nM.

On to `Cn1nnc(C(c2ccccc2)N2CCN(C(=O)c3cc(-c4nc5cc(N6CCCC6=O)ccc5o4)ccn3)CC2)n1` (stereo not drawn) [Compound 2, 1-(2-(2-(4-((2-methyl-2H-tetrazol-5-yl)(phenyl)methyl)piperazine-1-carbonyl)pyridin-4-yl)benzo[d]oxazol-5-yl)pyrrolidin-2-one], for which the EC50 is less than 5 nM in the experiment on IFVA/Weiss/43 and 26 nM with IFVA/Mal/302/54.

On to `O=C(Nc1ccc2oc(-c3ccnc(C(=O)N4CCN(C(c5ccccc5)c5nnn(C(F)F)n5)CC4)c3)nc2c1)[C@H]1C[C@@H]1F` (mixture of isomers) [Compound 95, (1R,2S)—N-(2-(2-(4-((R/S)-(2-(difluoromethyl)-2H-tetrazol-5-yl)(phenyl)methyl)piperazine-1-carbonyl)pyridin-4-yl)benzo[d]oxazol-5-yl)-2-fluorocyclopropane-1-carboxamide], for which the results for the EC50 in the experiment with IFVA/Weiss/43 and with IFVA/Mal/302/54 were 17 nM and 10 nM, respectively.

For `Cn1nnc(C(c2ccccc2)N2CCN(C(=O)c3cc(-c4nc5cc(NC(=O)C6CC6)ccc5o4)ccn3)CC2)n1` (stereo not drawn) [Compound 35, N-(2-(2-(4-((2-methyl-2H-tetrazol-5-yl)(phenyl)methyl)piperazine-1-carbonyl)pyridin-4-yl)benzo[d]oxazol-5-yl)cyclopropanecarboxamide], the EC50 came out at 12 nM in the experiment with IFVA/Weiss/43 and 19 nM in the experiment on IFVA/Mal/302/54.

Take `CC(=O)Nc1ccc2oc(-c3ccnc(C(=O)N4CC5(C4)CN(C(c4ccccc4)c4nnn(C)n4)C5)c3)nc2c1` (stereo not drawn) [Compound 10, N-(2-(2-(6-((2-methyl-2H-tetrazol-5-yl)(phenyl)methyl)-2,6-diazaspiro[3.3]heptane-2-carbonyl)pyridin-4-yl)benzo[d]oxazol-5-yl)acetamide]: the EC50 in the experiment on IFVA/Weiss/43 and in the experiment with IFVA/Mal/302/54 was greater than 10000 nM throughout.

Regarding `O=C(c1cc(-c2nc3cc(N4CCCC4)ccc3o2)ccn1)N1CCN(C(c2ccccc2)c2nnn(C(F)F)n2)CC1` (stereo not drawn) [Compound 71, (4-((2-(difluoromethyl)-2H-tetrazol-5-yl)(phenyl)methyl)piperazin-1-yl)(4-(5-(pyrrolidin-1-yl)benzo[d]oxazol-2-yl)pyridin-2-yl)methanone], the figures for the EC50 with IFVA/Weiss/43 and with IFVA/Mal/302/54 were 31 nM and 52 nM, respectively.
